Reference: PubChem BioAssay (NCI)
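In this assay, cells in 96-well plates receive the compound at five concentrations for 48 hours. Endpoints are linearly interpolated between the surrounding concentrations. Here, GI50 denotes the concentration required for 50% inhibition of growth. TGI: total growth inhibition.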

Legend:
Experiment in all cases: inhibition of tumour cell growth, NCI panel, 48 h
786-0 renal = test system: 786-0 renal
A498 renal = test system: A498 renal
A549 NSCLC = test system: A549 NSCLC
ACHN renal = test system: ACHN renal
BT-549 breast = test system: BT-549 breast
CAKI-1 renal = test system: CAKI-1 renal
CCRF-CEM leukemia = test system: CCRF-CEM leukemia
COLO 205 colon = test system: COLO 205 colon
DU-145 prostate = test system: DU-145 prostate
EKVX NSCLC = test system: EKVX NSCLC
HCC-2998 colon = test system: HCC-2998 colon
HCT-116 colon = test system: HCT-116 colon
HCT-15 colon = test system: HCT-15 colon
HL-60(TB) leukemia = test system: HL-60(TB) leukemia
HOP-62 NSCLC = test system: HOP-62 NSCLC
HOP-92 NSCLC = test system: HOP-92 NSCLC
HS 578T breast = test system: HS 578T breast
HT29 colon = test system: HT29 colon
IGROV1 ovarian = test system: IGROV1 ovarian
K-562 leukemia = test system: K-562 leukemia
KM12 colon = test system: KM12 colon
LOX IMVI melanoma = test system: LOX IMVI melanoma
M14 melanoma = test system: M14 melanoma
MALME-3M melanoma = test system: MALME-3M melanoma
MCF7 breast = test system: MCF7 breast
MDA-MB-231 breast = test system: MDA-MB-231 breast
MDA-MB-435 = test system: MDA-MB-435
MDA-MB-468 breast = test system: MDA-MB-468 breast
MOLT-4 leukemia = test system: MOLT-4 leukemia
NCI-H226 lung = test system: NCI-H226 lung
NCI-H23 lung = test system: NCI-H23 lung
NCI-H460 lung = test system: NCI-H460 lung
NCI-H522 lung = test system: NCI-H522 lung
NCI/ADR-RES ovarian = test system: NCI/ADR-RES ovarian
OVCAR-3 ovarian = test system: OVCAR-3 ovarian
OVCAR-4 ovarian = test system: OVCAR-4 ovarian
OVCAR-5 ovarian = test system: OVCAR-5 ovarian
OVCAR-8 ovarian = test system: OVCAR-8 ovarian
PC-3 prostate = test system: PC-3 prostate
RPMI-8226 leukemia = test system: RPMI-8226 leukemia
RXF 393 renal = test system: RXF 393 renal
SF-268 CNS = test system: SF-268 CNS
SF-295 CNS = test system: SF-295 CNS
SF-539 CNS = test system: SF-539 CNS
SK-MEL-2 melanoma = test system: SK-MEL-2 melanoma
SK-MEL-28 melanoma = test system: SK-MEL-28 melanoma
SK-MEL-5 melanoma = test system: SK-MEL-5 melanoma
SK-OV-3 ovarian = test system: SK-OV-3 ovarian
SN12C renal = test system: SN12C renal
SNB-19 CNS = test system: SNB-19 CNS
SNB-75 CNS = test system: SNB-75 CNS
SR leukemia = test system: SR leukemia
SW-620 colon = test system: SW-620 colon
T-47D breast = test system: T-47D breast
TK-10 renal = test system: TK-10 renal
U251 CNS = test system: U251 CNS
UACC-257 melanoma = test system: UACC-257 melanoma
UACC-62 melanoma = test system: UACC-62 melanoma
UO-31 renal = test system: UO-31 renal

O=C(N/N=C/c1ccc(B(O)O)s1)c1[nH]c2ccc(Br)cc2c1-c1ccccc1
GI50 (786-0 renal): 411 nM
TGI (786-0 renal): 8280 nM
GI50 (A498 renal): 8500 nM
TGI (A498 renal): 21600 nM
GI50 (A549 NSCLC): 423 nM
TGI (A549 NSCLC): 13400 nM
GI50 (ACHN renal): 512 nM
TGI (ACHN renal): 14000 nM
GI50 (BT-549 breast): 348 nM
TGI (BT-549 breast): 1020 nM
GI50 (CAKI-1 renal): 444 nM
TGI (CAKI-1 renal): 13600 nM
GI50 (CCRF-CEM leukemia): 366 nM
TGI (CCRF-CEM leukemia): 12600 nM
GI50 (COLO 205 colon): 231 nM
TGI (COLO 205 colon): 515 nM
GI50 (DU-145 prostate): 367 nM
TGI (DU-145 prostate): 11600 nM
GI50 (EKVX NSCLC): 425 nM
TGI (EKVX NSCLC): 11200 nM
GI50 (HCC-2998 colon): 364 nM
TGI (HCC-2998 colon): 5810 nM
GI50 (HCT-116 colon): 331 nM
TGI (HCT-116 colon): 4340 nM
GI50 (HCT-15 colon): 340 nM
TGI (HCT-15 colon): 8830 nM
GI50 (HL-60(TB) leukemia): 230 nM
TGI (HL-60(TB) leukemia): 659 nM
GI50 (HOP-62 NSCLC): 557 nM
TGI (HOP-62 NSCLC): 11800 nM
GI50 (HOP-92 NSCLC): 974 nM
TGI (HOP-92 NSCLC): 6340 nM
GI50 (HS 578T breast): 296 nM
TGI (HS 578T breast): 3440 nM
GI50 (HT29 colon): 290 nM
TGI (HT29 colon): 992 nM
GI50 (IGROV1 ovarian): 403 nM
TGI (IGROV1 ovarian): 13100 nM
GI50 (K-562 leukemia): 354 nM
TGI (K-562 leukemia): 16300 nM
GI50 (KM12 colon): 342 nM
TGI (KM12 colon): 4900 nM
GI50 (LOX IMVI melanoma): 350 nM
TGI (LOX IMVI melanoma): 6220 nM
GI50 (M14 melanoma): 371 nM
TGI (M14 melanoma): 12700 nM
GI50 (MALME-3M melanoma): 512 nM
TGI (MALME-3M melanoma): 21100 nM
GI50 (MCF7 breast): 333 nM
TGI (MCF7 breast): 10500 nM
GI50 (MDA-MB-231 breast): 339 nM
TGI (MDA-MB-231 breast): 11300 nM
GI50 (MDA-MB-435): 250 nM
TGI (MDA-MB-435): 647 nM
GI50 (MDA-MB-468 breast): 235 nM
TGI (MDA-MB-468 breast): 572 nM
GI50 (MOLT-4 leukemia): 459 nM
TGI (MOLT-4 leukemia): 14400 nM
GI50 (NCI-H226 lung): 511 nM
TGI (NCI-H226 lung): 5430 nM
GI50 (NCI-H23 lung): 378 nM
TGI (NCI-H23 lung): 13200 nM
GI50 (NCI-H460 lung): 363 nM
TGI (NCI-H460 lung): 4100 nM
GI50 (NCI-H522 lung): 208 nM
TGI (NCI-H522 lung): 549 nM
GI50 (NCI/ADR-RES ovarian): 238 nM
TGI (NCI/ADR-RES ovarian): 587 nM
GI50 (OVCAR-3 ovarian): 302 nM
TGI (OVCAR-3 ovarian): 2960 nM
GI50 (OVCAR-4 ovarian): 3560 nM
TGI (OVCAR-4 ovarian): 24100 nM
GI50 (OVCAR-5 ovarian): 390 nM
TGI (OVCAR-5 ovarian): 13900 nM
GI50 (OVCAR-8 ovarian): 272 nM
TGI (OVCAR-8 ovarian): 816 nM
GI50 (PC-3 prostate): 476 nM
TGI (PC-3 prostate): 16500 nM
GI50 (RPMI-8226 leukemia): 521 nM
TGI (RPMI-8226 leukemia): > 52300 nM
GI50 (RXF 393 renal): 343 nM
TGI (RXF 393 renal): 13600 nM
GI50 (SF-268 CNS): 515 nM
TGI (SF-268 CNS): 10200 nM
GI50 (SF-295 CNS): 299 nM
TGI (SF-295 CNS): 5380 nM
GI50 (SF-539 CNS): 227 nM
TGI (SF-539 CNS): 551 nM
GI50 (SK-MEL-2 melanoma): 432 nM
TGI (SK-MEL-2 melanoma): 14000 nM
GI50 (SK-MEL-28 melanoma): 856 nM
TGI (SK-MEL-28 melanoma): 16700 nM
GI50 (SK-MEL-5 melanoma): 215 nM
TGI (SK-MEL-5 melanoma): 497 nM
GI50 (SK-OV-3 ovarian): 691 nM
TGI (SK-OV-3 ovarian): 15000 nM
GI50 (SN12C renal): 374 nM
TGI (SN12C renal): 8110 nM
GI50 (SNB-19 CNS): 387 nM
TGI (SNB-19 CNS): 13500 nM
GI50 (SNB-75 CNS): 316 nM
TGI (SNB-75 CNS): 5630 nM
GI50 (SR leukemia): 364 nM
TGI (SR leukemia): 14300 nM
GI50 (SW-620 colon): 395 nM
TGI (SW-620 colon): 14800 nM
GI50 (T-47D breast): 3740 nM
TGI (T-47D breast): 22700 nM
GI50 (TK-10 renal): 7960 nM
TGI (TK-10 renal): 22900 nM
GI50 (U251 CNS): 311 nM
TGI (U251 CNS): 4600 nM
GI50 (UACC-257 melanoma): 1250 nM
TGI (UACC-257 melanoma): 18200 nM
GI50 (UACC-62 melanoma): 395 nM
TGI (UACC-62 melanoma): 5920 nM
GI50 (UO-31 renal): 1050 nM
TGI (UO-31 renal): 14100 nM
